From publication PMC9000336, “Development of Bicyclo[3.1.0]hexane-Based A3 Receptor Ligands: Closing the Gaps in the Structure–Affinity Relationships” (Molecules, 2022)
Read-outs that look alike come from different tables or passages of the source.

Assays:
[1] = biological target: T1, human adenosine A3 receptor (Homo sapiens, UniProt P0DMS8); experiment: Radioligand displacement assay, human adenosine A3 receptor ([3H]PSB11, CHOhA3R membranes); format: binding; settings: for inhibition at 10 µM: test compound 10 µM; for Ki: [3H]PSB11, read-out: A3 Ki ± SEM
T1 construct: expressed in transfected cells; host or cells: CHO cells (CHOhA3R), gift of Dr. K.-N. Klotz (University of Würzburg); membrane preparation
T1 sequence (P0DMS8 1-318): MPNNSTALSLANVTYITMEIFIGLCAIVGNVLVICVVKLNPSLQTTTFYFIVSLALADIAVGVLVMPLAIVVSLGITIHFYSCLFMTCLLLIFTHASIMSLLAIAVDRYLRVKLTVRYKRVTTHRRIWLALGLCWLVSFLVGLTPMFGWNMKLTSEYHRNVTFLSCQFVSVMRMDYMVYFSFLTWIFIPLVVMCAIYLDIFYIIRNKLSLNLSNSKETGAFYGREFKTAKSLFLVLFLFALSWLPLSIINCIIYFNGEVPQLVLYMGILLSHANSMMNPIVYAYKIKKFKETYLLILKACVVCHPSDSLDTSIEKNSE
Experimental: Chinese hamster ovary (CHO) cells stably expressing the human adenosine A1 receptor (CHOhA1R) were kindly provided by Prof. S. J. Hill and CHO cells stably expressing the human adenosine A3 receptor (CHOhA3R) were a gift from Dr. K.-N. Klotz (University of Würzburg, Germany). Chinese hamster ovary cells stably expressing the human A1-receptor (CHOhA1R) or the human A3-receptor (CHOhA3R) were grown in Dulbecco’s Modified Eagle’s Medium (DMEM) and Ham’s F12 medium (1:1) supplemented with 10% (v/v) newborn calf serum, 50 µg/mL streptomycin, 50 IU/mL penicillin, and 200 µg/mL G418 at 37 °C and 5% CO2. […] All cells were grown to 80–90% confluency and detached from plates by scraping them into 5 mL phosphate-buffered saline. Detached cells were collected and centrifuged at 200 g for 5 min. Pellets derived from 100 15 cm Ø plates were pooled and resuspended in 70 mL of ice-cold 50 mM tris(hydroxymethyl)aminomethane (Tris)-HCl buffer, pH 7.4. A Heidolph Diax 900 homogenizer was used to homogenize the cell suspension. Membranes and the cytosolic fraction were separated by centrifugation at 100,000 g in a Beckman Optima LE-80 K ultracentrifuge (Beckman Coulter, Fullerton, CA, USA) at 4 °C for 20 min. The pellet was resuspended in 35 mL of the Tris-HCl buffer, and the homogenization and centrifugation steps were repeated. Tris-HCl buffer (25 mL) was used to resuspend the pellet, and adenosine deaminase (ADA) was added (0.8 U/mL) to break down endogenous adenosine. Membranes were stored in 250 µL and 500 µL aliquots at −80 °C. Total protein concentrations were measured using the bicinchoninic acid (BCA) method.
A3 Receptor: Membrane aliquots containing 15 µg (CHOhA3R) total protein were incubated in a total volume of 100 µL assay buffer (50 mM Tris-HCl, pH 8.0, supplemented with 10 mM MgCl2, 1 mM EDTA and 0.01% (w/v) CHAPS) at 25 °C for 2 h. Radioligand displacement experiments were performed using six concentrations of competing ligand in the presence of 10 nM [^3H]8-ethyl-4-methyl-2-phenyl-(8R)-4,5,7,8-tetrahydro-1H-imidazo[2.1-i]purin-5-one ([^3H]PSB11). […] Nonspecific binding was determined in the presence of 100 µM NECA. Incubations were terminated by rapid vacuum filtration to separate the bound and free radioligand through prewetted 96-well GF/B filter plates using a PerkinElmer Filtermate-harvester (Perkin Elmer, Groningen, The Netherlands). Filters were subsequently washed 12 times with ice-cold 50 mM Tris-HCl supplemented with 10 mM MgCl2, and 1 mM EDTA, pH 8.0 for CHOhA3R.
(§1) The plates of all four adenosine receptor assays were dried at 55 °C after which MicroscintTM-20-cocktail was added (Perkin Elmer, Groningen, The Netherlands).
(§2) All experimental data were analyzed using the non-linear regression curve fitting program GraphPad Prism 7.0 (GraphPad Software Inc., San Diego, CA, USA). IC50 values obtained from competition displacement binding data were converted into Ki values using the Cheng–Prusoff equation.

[2] = biological target: T2, human adenosine A2A receptor (Homo sapiens, UniProt P29274); experiment: Radioligand displacement assay, human adenosine A2A receptor ([3H]ZM241385, HEK293hA2AR membranes); format: binding; settings: for A2A displacement at 10 µM: test compound 10 µM; for A2A displacement at 10 µM / Ki: n = 3
T2 construct: expressed in transfected cells; host or cells: HEK293 cells (HEK293hA2AR), from Dr. J. Wang (Biogen/IDEC); membrane preparation
Experimental: Human embryonic kidney 293 cells stably expressing the human adenosine A2A receptor (HEK293hA2AR) were kindly provided by Dr. J. Wang (Biogen/IDEC, Cambridge, MA, USA), CHO-spap cells stably expressing the wild-type (WT) hA2B receptor (CHO-spap-hA2BR) were kindly provided by S. J. Dowell (GlaxoSmithKline, Brentfort, UK).
All cells were grown to 80–90% confluency and detached from plates by scraping them into 5 mL phosphate-buffered saline. Detached cells were collected and centrifuged at 200 g for 5 min. Pellets derived from 100 15 cm Ø plates were pooled and resuspended in 70 mL of ice-cold 50 mM tris(hydroxymethyl)aminomethane (Tris)-HCl buffer, pH 7.4. A Heidolph Diax 900 homogenizer was used to homogenize the cell suspension. Membranes and the cytosolic fraction were separated by centrifugation at 100,000 g in a Beckman Optima LE-80 K ultracentrifuge (Beckman Coulter, Fullerton, CA, USA) at 4 °C for 20 min. The pellet was resuspended in 35 mL of the Tris-HCl buffer, and the homogenization and centrifugation steps were repeated. Tris-HCl buffer (25 mL) was used to resuspend the pellet, and adenosine deaminase (ADA) was added (0.8 U/mL) to break down endogenous adenosine. Membranes were stored in 250 µL and 500 µL aliquots at −80 °C. Total protein concentrations were measured using the bicinchoninic acid (BCA) method.
Nonspecific binding was determined in the presence of 100 µM adenosine-5-N-ethyluronamide (NECA). Incubations were terminated by rapid vacuum filtration to separate the bound and free radioligand through prewetted 96-well GF/B filter plates using a PerkinElmer Filtermate-harvester (Perkin Elmer, Groningen, The Netherlands). Filters were subsequently washed 12 times with ice-cold 50 mM Tris-HCl, pH 7.4.
as §1, §2

[3] = [3H]ZM241385, read-out: A2A Ki ± SEM

T2 sequence (P29274 whole entry): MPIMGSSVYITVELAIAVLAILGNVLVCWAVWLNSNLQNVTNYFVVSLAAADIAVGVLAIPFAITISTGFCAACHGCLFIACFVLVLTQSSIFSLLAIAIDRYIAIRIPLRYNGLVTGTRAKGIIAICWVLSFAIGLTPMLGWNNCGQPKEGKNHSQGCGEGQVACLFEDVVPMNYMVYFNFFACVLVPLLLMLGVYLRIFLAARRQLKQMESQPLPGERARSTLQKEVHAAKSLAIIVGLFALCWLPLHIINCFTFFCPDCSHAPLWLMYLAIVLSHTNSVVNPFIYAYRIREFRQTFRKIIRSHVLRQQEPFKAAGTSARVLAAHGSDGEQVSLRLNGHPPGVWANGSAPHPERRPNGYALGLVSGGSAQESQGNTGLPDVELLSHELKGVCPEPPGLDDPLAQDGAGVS

SMILES | inhibition at 10 µM ([1]; n = 3) [%] | A2A displacement at 10 µM [2] [%] | Ki ([1]; n = 3) [µM] | also measured
Nc1cc(Cl)c2ncn([C@H]3[C@H](O)[C@H](O)[C@]4(CO)C[C@H]34)c2n1 [Compound 11, (1R,2R,3S,4R,5S)-4-(5-Amino-7-chloro-3H-imidazo[4,5-b]pyridin-3-yl)-1-(hydroxymethyl)bicyclo[3.1.0]hexane-2,3-diol] | 4 | 4 | – | –
OC[C@@]12C[C@@H]1[C@@H](n1cnc3c(Cl)cc(Cl)nc31)[C@H](O)[C@@H]2O [Compound 12, (1R,2R,3S,4R,5S)-4-(5,7-Dichloro-3H-imidazo[4,5-b]pyridin-3-yl)-1-(hydroxymethyl)bicyclo[3.1.0]hexane-2,3-diol] | – | – | > 10 | Ki [2, 3]: > 10 µM
OC[C@@]12C[C@@H]1[C@@H](n1cnc3c(NCc4ccccc4)cc(Cl)nc31)[C@H](O)[C@@H]2O [Compound 13, (1R,2R,3S,4R,5S)-4-[7-(Benzylamino)-5-chloro-3H-imidazo[4,5-b]pyridin-3-yl]-1-(hydroxymethyl)bicyclo[3.1.0]hexane-2,3-diol] | – | 13 | 0.46 ± 0.02 | –
CSc1cc(NCc2ccccc2)c2ncn([C@H]3[C@H](O)[C@H](O)[C@]4(CO)C[C@H]34)c2n1 [Compound 14, (1R,2R,3S,4R,5S)-4-[7-(Benzylamino)-5-methylthio-3H-imidazo[4,5-b]pyridin-3-yl]-1-(hydroxymethyl)bicyclo[3.1.0]hexane-2,3-diol] | – | 4 | 1.51 ± 0.03 | –
COc1ccc(CNc2cc(Cl)nc3c2ncn3[C@H]2[C@H](O)[C@H](O)[C@]3(CO)C[C@H]23)cc1 [Compound 15, (1R,2R,3S,4R,5S)-4-{5-Chloro-7-[(4-methoxy)benzylamino]-3H-imidazo[4,5-b]pyridin-3-yl}-1-(hydroxymethyl)bicyclo[3.1.0]hexane-2,3-diol] | – | 2 | 0.5 ± 0.01 | –
Nc1cc(Cl)nc2c1ncn2[C@H]1[C@H](O)[C@H](O)[C@]2(CO)C[C@H]12 [Compound 16, (1R,2R,3S,4R,5S)-4-(7-Amino-5-chloro-3H-imidazo[4,5-b]pyridin-3-yl)-1-(hydroxymethyl)bicyclo[3.1.0]hexane-2,3-diol] | – | 42 | 1.6 ± 0.11 | –
CSc1cc(N)c2ncn([C@H]3[C@H](O)[C@H](O)[C@]4(CO)C[C@H]34)c2n1 [Compound 17, (1R,2R,3S,4R,5S)-4-(7-Amino-5-methylthio-3H-imidazo[4,5-b]pyridin-3-yl)-1-(hydroxymethyl)bicyclo[3.1.0]hexane-2,3-diol] | 45 | 3 | – | –
OC[C@@]12C[C@@H]1[C@@H](n1cnc3c(N(Cc4ccccc4)Cc4ccccc4)ncnc31)[C@H](O)[C@@H]2O [Compound 26, (1R,2R,3S,4R,5S)-4-[6-(Dibenzylamino)-9H-purin-9-yl]-1-(hydroxymethyl)bicyclo[3.1.0]hexane-2,3-diol] | 8 | 9 | – | potency at the A3 receptor [1]: not potent
OC[C@@]12C[C@@H]1[C@@H](n1cnc3c(N(Cc4ccccc4)Cc4ccccc4)nc(Cl)nc31)[C@H](O)[C@@H]2O [Compound 27, (1R,2R,3S,4R,5S)-4-[6-(Dibenzylamino)-2-chloro-9H-purin-9-yl]-1-(hydroxymethyl)bicyclo[3.1.0]hexane-2,3-diol] | 4 | – | – | potency at the A3 receptor [1]: not potent; Ki [2, 3]: > 10 µM
CSc1nc(N(Cc2ccccc2)Cc2ccccc2)c2ncn([C@H]3[C@H](O)[C@H](O)[C@]4(CO)C[C@H]34)c2n1 [Compound 30, (1R,2R,3S,4R,5S)-4-[6-(Dibenzylamino)-2-methylthio-9H-purin-9-yl]-1-(hydroxymethyl)bicyclo[3.1.0]hexane-2,3-diol] | – | 13 | 0.38 ± 0.01 | A3R selectivity ([1]; versus other P1 receptor subtypes): high A3R selectivity
CSc1nc(N(Cc2ccccc2)Cc2ccccc2)c2ncn([C@H]3[C@H](O)[C@H](O)[C@]4(CCl)C[C@H]34)c2n1 [Compound 31, (1S,2R,3S,4R,5S)-4-[6-(Dibenzylamino)-2-methylthio-9H-purin-9-yl]-1-(chloromethyl)bicyclo[3.1.0]hexane-2,3-diol] | 26 | – | – | potency at the A3 receptor [1]: not potent; Ki [2, 3]: > 10 µM
Nc1ncnc2c1ncn2[C@H]1[C@H](O)[C@H](O)[C@]2(CO)C[C@H]12 [Compound 36, (N)-methanocarba adenosine] | – | – | 0.96 ± 0.05 | Ki [2, 3]: 1.81 ± 0.11 µM; fold lower affinity towards A2A receptor than A3 ([2]; relative to A3 Ki): 2 fold
CSc1nc(N)c2ncn([C@H]3[C@H](O)[C@H](O)[C@]4(Cn5cc(CO)nn5)C[C@H]34)c2n1 [Compound 39, (1R,2R,3S,4R,5S)-4-(6-Amino-2-methylthio-9H-purin-9-yl)-1-{[4-(hydroxymethyl)-1H-1,2,3-triazol-1-yl]methyl}bicyclo[3.1.0]hexane-2,3-diol] | 37 | 11 | – | –
COC(=O)c1cn(C[C@@]23C[C@@H]2[C@@H](n2cnc4c(N)nc(SC)nc42)[C@H](O)[C@@H]3O)nn1 [Compound 40, Methyl 1-{[(1R,2R,3S,4R,5S)-4-(6-amino-2-methylthio-9H-purin-9-yl)-2,3-dihydroxybicyclo[3.1.0]hex-1-yl]methyl}-1H-1,2,3-triazole-4-carboxylate] | 8 | 3 | – | –
COC(=O)Cc1cn(C[C@@]23C[C@@H]2[C@@H](n2cnc4c(N)nc(SC)nc42)[C@H](O)[C@@H]3O)nn1 [Compound 41, Methyl 2-(1-{[(1R,2R,3S,4R,5S)-4-(6-amino-2-methylthio-9H-purin-9-yl)-2,3-dihydroxybicyclo[3.1.0]hex-1-yl]methyl}-1H-1,2,3-triazol-4-yl)acetate] | – | – | – | A3 displacement at 1 µM ([1]; footnote a: test compound 1 µM, n = 3): 3% ^a; Ki ([2]; footnote a: tested at 1 µM, read-out: A2A Ki (bound, footnote a)): > 1 µM
COC(=O)CCc1cn(C[C@@]23C[C@@H]2[C@@H](n2cnc4c(N)nc(SC)nc42)[C@H](O)[C@@H]3O)nn1 [Compound 42, Methyl 3-(1-{[(1R,2R,3S,4R,5S)-4-(6-amino-2-methylthio-9H-purin-9-yl)-2,3-dihydroxybicyclo[3.1.0]hex-1-yl]methyl}-1H-1,2,3-triazol-4-yl)propanoate] | – | 29 | 6.35 ± 0.23 | –
